In patent US20040115227A1, “Thermoformable solid pharmaceutical composition for controlled release of perindopril” (priority 2000, published 2004):
Where a name gives a salt, the structure may show the parent alone.

What was measured:
[1] = degradation during extrusion in the hot state; type: physicochemical; conditions: extrusion in the hot state at temperatures of from 95° C. to 110° C.
Procedure: Moreover, and in surprising manner, it has been shown that the perindopril tert-butylamine salt, which is usually unstable to temperature or in association with certain acidic excipients, was not degraded, or only slightly degraded, during extrusion in the hot state carried out at temperatures of from 95° C. to 110° C. (less than 3% degradation).

[2] = stability study over 6 months; type: physicochemical; conditions: variable temperature and relative humidity conditions, packaging of the aluminium/PVC blister type

degradation [1]: less than 3%
stability [2]: excellent stability
Structure (SMILES): CCC[C@H](N[C@@H](C)C(=O)N1[C@H](C(=O)O)C[C@@H]2CCCC[C@@H]21)C(=O)OCC [perindopril tert-butylamine salt, perindopril]
